PubChem BioAssay (NCI)
Values joined by “and” are separate entries in the source; they are usually repeats but may differ in a detail not shown here. Identical values can stand only once.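 Results reflect a 48-hour exposure of cells in 96-well plates to compound at five concentrations. Here, GI50 denotes the concentration required for 50% inhibition of growth. TGI marks complete inhibition of growth.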

Key:
Assay in all cases: NCI tumour cell line growth inhibition, 48 h
RXF 393 renal = test system: RXF 393 renal
T-47D breast = test system: T-47D breast
CAKI-1 renal = test system: CAKI-1 renal
OVCAR-5 ovarian = test system: OVCAR-5 ovarian
SF-539 CNS = test system: SF-539 CNS
SF-295 CNS = test system: SF-295 CNS
HCT-116 colon = test system: HCT-116 colon
OVCAR-3 ovarian = test system: OVCAR-3 ovarian
KM12 colon = test system: KM12 colon
SK-OV-3 ovarian = test system: SK-OV-3 ovarian

SMILES	TGI (RXF 393 renal)	TGI (T-47D breast)	TGI (CAKI-1 renal)	TGI (OVCAR-5 ovarian)	TGI (SF-539 CNS)	TGI (SF-295 CNS)	TGI (HCT-116 colon)	TGI (OVCAR-3 ovarian)	TGI (KM12 colon)	TGI (SK-OV-3 ovarian)	GI50 (RXF 393 renal)	GI50 (T-47D breast)	GI50 (CAKI-1 renal)	GI50 (OVCAR-5 ovarian)	GI50 (SF-539 CNS)	GI50 (SF-295 CNS)	GI50 (OVCAR-3 ovarian)	GI50 (KM12 colon)	GI50 (SK-OV-3 ovarian)	GI50 (HCT-116 colon)
COc1cc2[nH]c3c(c2cc1OC)CCN[C@@]31CC[C@@]2(CC3c4c(cc(OC)c(O)c42)CCN3C)C[C@@H]1OC (some centres not stated)	77.9 µM	51.8 µM	> 79.5 µM	> 100 µM	28.4 µM	47.3 µM	> 87.4 µM	> 94.8 µM	> 85 µM	> 100 µM										
CN(C(=O)C(C)(C)C)c1ccccc1I(=O)=O	> 100 µM	> 100 µM	> 100 µM	> 100 µM	> 100 µM	> 100 µM		> 100 µM	> 100 µM	> 100 µM	> 100 µM	38.3 µM	> 100 µM	> 100 µM	> 100 µM	> 100 µM	> 100 µM	> 100 µM	> 100 µM	
Cn1nc(C(F)(F)F)cc1-c1cc(Cl)c(OCc2ccc(Cl)cc2)c(-c2ccc(Cl)c(C(F)(F)F)c2)c1O	3.11 µM	2.96 µM	3.49 µM	7.4 µM	3.26 µM	2.55 µM	1.86 µM	6.12 µM	5.07 µM	4.31 µM	1.01 µM	0.435 µM	1.11 µM	1.72 µM	1.07 µM	0.997 µM	1.13 µM	1.38 µM	1.43 µM	0.691 µM
C[C@]12CCC(=O)C=C1C[C@@H](O)[C@@H]1[C@@H]2CC[C@@]2(C)[C@H]1CC[C@]2(C)O	> 100 µM	> 100 µM	> 100 µM	> 100 µM		> 100 µM	> 100 µM	> 100 µM	> 100 µM	> 100 µM										
NC1CC(=O)c2c(-c3cccs3)sc(-c3cccs3)c21 (configuration not stated)	> 100 µM	36.5 µM	> 100 µM		47.6 µM	> 100 µM	29.9 µM	92.4 µM	> 100 µM	> 100 µM	59.1 µM	10.7 µM	33.4 µM		21.3 µM	85.4 µM	26.1 µM	25 µM	> 100 µM	15.3 µM
Nc1nc(N)c2c(ccc3c2ccn3Cc2cccc([N+](=O)[O-])c2)n1		3.05 µM	1.9 µM	2.36 µM	1.64 µM	3.49 µM and 4.55 µM	1.84 µM	2.24 µM and 2.22 µM	2.21 µM and 1.95 µM	2.01 µM and 2.11 µM		0.739 µM	0.0562 µM	0.0504 µM	0.0454 µM		1.01 µM and 0.794 µM	0.0937 µM and 0.129 µM	0.0888 µM and 0.54 µM	0.00591 µM
O=C(Nc1nc2c(C(F)(F)F)cccc2s1)c1cc(Cl)ccc1O	0.772 µM	0.783 µM		25.7 µM	1.96 µM	0.707 µM	11.2 µM	74.7 µM	11.8 µM	0.797 µM	0.257 µM	0.245 µM		0.317 µM	0.286 µM	0.232 µM	0.375 µM	0.363 µM	0.236 µM	0.352 µM
O=C(Nc1ccc(Cl)c(Cl)c1)c1ccc(NC2=C(Cl)C(=O)N(Cc3ccccc3)C2=O)cc1		92 µM	12.6 µM	8.91 µM	30.1 µM	34.7 µM	4.25 µM	4.86 µM	27.2 µM	44 µM		31.6 µM	3 µM	2.95 µM	16 µM	13.6 µM	2.14 µM	11.5 µM	21.5 µM	1.94 µM
CC(=O)C(CN1C(=O)c2ccccc2C1=O)C(C)=O	53.8 µM	> 100 µM	> 100 µM	> 100 µM	> 100 µM	> 100 µM	> 100 µM	> 100 µM		> 100 µM										
CC1=CC(C)=N/C(=N/S(=O)(=O)c2cc(C)c(Cl)cc2SCc2ccccc2)NN1		> 100 µM	> 100 µM	> 100 µM	> 100 µM	> 100 µM	> 100 µM	> 100 µM	> 100 µM	> 100 µM		> 100 µM	> 100 µM	> 100 µM	81.1 µM	> 100 µM	> 100 µM	> 100 µM	> 100 µM	> 100 µM
CC1(C)CC(=O)C(CC2C(=O)CCCC2=O)C(=O)C1	> 100 µM		> 100 µM	> 100 µM	> 100 µM	> 100 µM	> 100 µM	> 100 µM	> 100 µM	> 100 µM										
CC1=CC2(C)/C=C(C)/C=C\CC(O)/C=C3/C=CC(=C4C(=O)OC2(CC1C)C4=O)OC3 (configuration not stated)		6.52 µM	3.63 µM	10.1 µM	6.72 µM	32 µM	5.02 µM	2.5 µM	10.5 µM	47.3 µM		1.63 µM	1.65 µM	2.93 µM	2.49 µM	8.31 µM	1.18 µM	3.17 µM	19.4 µM	0.541 µM
CCCCCCCCCC1CC(=O)OC2=C1C(=O)CCC2 (configuration not stated)	> 100 µM		> 100 µM	> 100 µM	> 100 µM	> 100 µM	> 100 µM	> 100 µM	> 100 µM	> 100 µM										
NC(=O)NNC/C(Cl)=C(\Cl)C(=O)O	> 100 µM		> 100 µM	> 100 µM	> 100 µM	> 100 µM	> 100 µM	> 100 µM	> 100 µM	> 100 µM										
C/C(=N\N=C(N)N)C(CN1CCOCC1)C(c1ccccc1)c1c(O)c2ccccc2oc1=O (configuration not stated)	> 100 µM		> 100 µM	> 100 µM	> 100 µM	> 100 µM	> 100 µM	> 100 µM	> 100 µM	> 100 µM										
CCCCCCC(=O)NC1=C(N2CC2)C(=O)C(NC(=O)CCCCCC)=C(N2CC2)C1=O	79.5 µM	> 100 µM	> 100 µM	> 100 µM	> 100 µM	34 µM		4.85 µM	> 100 µM	> 100 µM	16.3 µM	3.45 µM	1.93 µM	> 100 µM	2.37 µM	0.444 µM	1.53 µM	3.12 µM	13 µM	
